Experiments:
Assay type in all cases: biochemical
Conditions in all cases: Enzymatic Data
PI3K delta = target: T1, PI3K delta (Homo sapiens, UniProt O00329); test: PI3K delta enzymatic assay (Kinase-Glo luminescence)
T1 construct: for the full-length p110-d subunit are generated and fused by overlapping PCR; p85(iSH2) fusion partner (same polypeptide; see partner chain) (N); Gly linker (N); His tag (C); made in house; host or cells: baculovirus; Tn5 (Trichoplusia ni) or TiniPro insect cells
Experimental: (§1) In a more preferred assay, the kinase reaction is performed in a final volume of 10 μL per well of a low volume non binding CORNING, 384 well black plate (Cat. No. #3676). The final concentrations of ATP and phosphatidyl inositol (PI) in the assay are 1 μM and 10 μg/mL respectively. The reaction is started by the addition of ATP.
(§2) The components of the assay are added per well as follows:
(§3) 50 nL test compounds in 90% DMSO per well, in columns 1-20, 8 concentrations (⅓ and 1/3.33 serial dilution step) in single. • Low control: 50 nL of 90% DMSO in half the wells of columns 23-24 (0.45% in final). • High control: 50 nL of reference compound (e.g. compound of Example 7 in WO 2006/122806, incorporated by reference herein that regard) in the other half of columns 23-24 (2.5 μM in final). • Standard: 50 nL of reference compound as just mentioned diluted as the test compounds in columns 21-22 • 20 mL ‘buffer’ are prepared per assay: • 200 μL of 1M TRIS HCl pH7.5 (10 mM in final) • 60 μL of 1M MgCl2 (3 mM in final) • 500 μL of 2M NaCl (50 mM in final) • 100 μL of 10% CHAPS (0.05% in final) • 200 μL of 100 mM DTT (1 mM in final) • 18.94 mL of nanopure water • 10 mL ‘PI’ are prepared per assay: • 200 μL of 1 mg/ml L-alpha-Phosphatidylinositol (Liver Bovine, Avanti Polar Lipids Cat. No. 840042C MW=909.12) prepared in 3% OctylGlucoside ([…]) • 9.8 mL of ‘buffer’ • 10 mL ‘ATP’ are prepared per assay: • 6.7 μL of 3 mM stock of ATP giving a final concentration of 1 μM per well • 10 mL of ‘buffer’ • 2.5 mL of each PI3K construct are prepared per assay in ‘PI’ with the following final concentration: • 10 nM PI3K alfa BV-1075 • 25 nM beta BV-949 • 10 nM delta BV-1060 • 150 nM gamma BV-950 • 5 μL of ‘PI/PI3K’ are added per well. • 5 μl ‘ATP’ are added per well to start the reaction. • The plates are then incubated at room temperature for 60 minutes (alfa, beta, delta) or 120 minutes (gamma). • The reaction is terminated by the addition of 10 μL Kinase-Glo (Promega Cat. No. #6714). • The assay plates are read after 10 minutes in Synergy 2 reader (BioTek, Vermont USA) with an integration time of 100 milliseconds and sensitivity set to 191. • Output: The High control is around 60′000 counts and the Low control is 30′000 or lower • This luminescence assay gives a useful Z′ ratio between 0.4 and 0.7 The Z′ value is a universal measurement of the robustness of an assay. A Z′ between 0.5 and 1.0 is considered an excellent assay.
PI3Kδ BV-1060 p85(iSH2)-Gly Linker-p110d (Full-Length)-C-term His Tact
(§4) IC50 is determined by a four parameter curve fitting routine that comes aloneg with “excel fit”. A 4 Parameter logistic equation is used to calculate IC50 values (IDBS XLfit) of the percentage inhibition of each compound at 8 concentrations (usually 10, 3.0, 1.0, 0.3, 0.1, 0.030, 0.010 and 0.003 μM). Alternatively, IC50 values are calculated using idbsXLfit model 204, which is a 4 parameter logistic model.

PI3K beta = target: T2, PI3K beta (Homo sapiens, UniProt P42338); test: PI3K beta enzymatic assay (Kinase-Glo luminescence)
T2 construct: for the full-length p110-b subunit are generated and fused by overlapping PCR; p85(iSH2) fusion partner (same polypeptide; see partner chain) (N); Gly linker (N); His tag (C); made in house; host or cells: baculovirus; Tn5 (Trichoplusia ni) or TiniPro insect cells
Experimental: as §1, §2, §3
PI3Kβ BV-949 p85(iSH2)-Gly linker-p110b (Full-Length)-C-Term His Tag
as §4

PI3K alfa = target: T3, PI3K alfa (Homo sapiens, UniProt P42336); test: PI3K alfa enzymatic assay (Kinase-Glo luminescence)
T3 construct: p85(iSH2) fusion partner (same polypeptide; see partner chain) (N); 12x Gly linker (N); His tag (C); made in house; host or cells: baculovirus; Tn5 (Trichoplusia ni) or TiniPro insect cells
Experimental: as §1, §2, §3, §4

PI3K gamma = target: T4, PI3K gamma (Homo sapiens, UniProt P48736); test: PI3K gamma enzymatic assay (Kinase-Glo luminescence)
T4 construct: His tag (C); made in house; host or cells: construct from Roger Williams lab (MRC LMB); baculovirus (pVL1393); Tn5 (Trichoplusia ni) or TiniPro insect cells
Experimental: as §1, §2, §3, §4

T2 sequence (P42338 with tags, fused parts or gaps limits assumed): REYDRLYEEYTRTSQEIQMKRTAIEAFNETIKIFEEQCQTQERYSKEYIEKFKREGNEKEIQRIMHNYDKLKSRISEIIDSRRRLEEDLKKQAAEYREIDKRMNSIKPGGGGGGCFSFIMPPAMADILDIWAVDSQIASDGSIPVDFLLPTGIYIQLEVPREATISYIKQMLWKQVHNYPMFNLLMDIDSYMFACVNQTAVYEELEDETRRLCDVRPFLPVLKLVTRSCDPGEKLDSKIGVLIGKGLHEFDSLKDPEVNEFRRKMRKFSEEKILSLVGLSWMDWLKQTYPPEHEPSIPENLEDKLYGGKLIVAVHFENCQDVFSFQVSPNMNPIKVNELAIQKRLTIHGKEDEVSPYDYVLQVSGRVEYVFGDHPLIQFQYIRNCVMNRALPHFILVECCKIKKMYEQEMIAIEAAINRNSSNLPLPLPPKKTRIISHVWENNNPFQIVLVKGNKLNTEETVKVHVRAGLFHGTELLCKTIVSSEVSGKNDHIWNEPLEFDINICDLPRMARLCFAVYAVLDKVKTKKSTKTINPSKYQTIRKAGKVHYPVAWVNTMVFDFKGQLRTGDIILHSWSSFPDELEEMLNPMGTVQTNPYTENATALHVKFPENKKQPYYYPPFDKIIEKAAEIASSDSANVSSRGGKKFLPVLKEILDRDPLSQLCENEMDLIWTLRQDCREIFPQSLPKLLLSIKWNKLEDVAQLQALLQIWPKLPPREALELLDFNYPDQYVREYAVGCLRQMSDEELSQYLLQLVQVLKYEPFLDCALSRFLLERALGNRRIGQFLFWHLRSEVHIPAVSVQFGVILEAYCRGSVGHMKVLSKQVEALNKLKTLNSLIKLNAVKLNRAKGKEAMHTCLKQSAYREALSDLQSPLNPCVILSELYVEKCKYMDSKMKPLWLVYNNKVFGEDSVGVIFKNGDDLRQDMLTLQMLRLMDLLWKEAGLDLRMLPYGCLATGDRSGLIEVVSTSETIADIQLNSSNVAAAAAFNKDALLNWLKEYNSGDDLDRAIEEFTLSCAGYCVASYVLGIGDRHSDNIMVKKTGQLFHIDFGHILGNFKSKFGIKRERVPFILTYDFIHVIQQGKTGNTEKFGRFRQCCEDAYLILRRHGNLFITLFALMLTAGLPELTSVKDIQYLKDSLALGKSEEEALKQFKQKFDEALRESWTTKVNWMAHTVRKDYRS
T1 sequence (O00329 with tags, fused parts or gaps limits assumed): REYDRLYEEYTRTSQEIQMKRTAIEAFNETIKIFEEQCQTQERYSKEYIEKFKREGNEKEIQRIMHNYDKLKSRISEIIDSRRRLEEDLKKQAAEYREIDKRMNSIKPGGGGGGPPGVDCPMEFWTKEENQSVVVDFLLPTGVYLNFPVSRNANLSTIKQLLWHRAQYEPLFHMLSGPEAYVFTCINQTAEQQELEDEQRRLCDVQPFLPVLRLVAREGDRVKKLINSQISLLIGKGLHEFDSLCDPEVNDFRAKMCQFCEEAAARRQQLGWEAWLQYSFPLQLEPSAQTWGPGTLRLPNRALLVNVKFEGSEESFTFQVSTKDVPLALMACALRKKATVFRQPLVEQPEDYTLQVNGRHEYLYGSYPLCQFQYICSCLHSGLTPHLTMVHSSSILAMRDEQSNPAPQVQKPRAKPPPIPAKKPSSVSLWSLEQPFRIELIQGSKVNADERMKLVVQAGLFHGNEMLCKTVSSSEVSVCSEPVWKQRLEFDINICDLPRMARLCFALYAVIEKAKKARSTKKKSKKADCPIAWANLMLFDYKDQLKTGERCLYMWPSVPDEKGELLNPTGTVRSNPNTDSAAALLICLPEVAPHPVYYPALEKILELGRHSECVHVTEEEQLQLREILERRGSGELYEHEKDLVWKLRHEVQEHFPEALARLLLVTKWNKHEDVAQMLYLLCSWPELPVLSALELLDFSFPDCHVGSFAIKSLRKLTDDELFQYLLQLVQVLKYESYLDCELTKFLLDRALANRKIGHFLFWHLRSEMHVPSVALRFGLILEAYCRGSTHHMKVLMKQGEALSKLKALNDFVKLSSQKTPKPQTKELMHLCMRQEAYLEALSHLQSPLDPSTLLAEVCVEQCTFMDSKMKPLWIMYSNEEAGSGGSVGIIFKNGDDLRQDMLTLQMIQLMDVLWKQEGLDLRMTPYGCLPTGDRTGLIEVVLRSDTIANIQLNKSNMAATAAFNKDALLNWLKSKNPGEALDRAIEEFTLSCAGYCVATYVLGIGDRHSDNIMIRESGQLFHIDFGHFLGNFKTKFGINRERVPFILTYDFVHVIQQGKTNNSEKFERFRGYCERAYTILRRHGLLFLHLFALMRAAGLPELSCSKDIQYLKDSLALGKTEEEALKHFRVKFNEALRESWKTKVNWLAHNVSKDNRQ
T3 sequence (P42336 with tags, fused parts or gaps limits assumed): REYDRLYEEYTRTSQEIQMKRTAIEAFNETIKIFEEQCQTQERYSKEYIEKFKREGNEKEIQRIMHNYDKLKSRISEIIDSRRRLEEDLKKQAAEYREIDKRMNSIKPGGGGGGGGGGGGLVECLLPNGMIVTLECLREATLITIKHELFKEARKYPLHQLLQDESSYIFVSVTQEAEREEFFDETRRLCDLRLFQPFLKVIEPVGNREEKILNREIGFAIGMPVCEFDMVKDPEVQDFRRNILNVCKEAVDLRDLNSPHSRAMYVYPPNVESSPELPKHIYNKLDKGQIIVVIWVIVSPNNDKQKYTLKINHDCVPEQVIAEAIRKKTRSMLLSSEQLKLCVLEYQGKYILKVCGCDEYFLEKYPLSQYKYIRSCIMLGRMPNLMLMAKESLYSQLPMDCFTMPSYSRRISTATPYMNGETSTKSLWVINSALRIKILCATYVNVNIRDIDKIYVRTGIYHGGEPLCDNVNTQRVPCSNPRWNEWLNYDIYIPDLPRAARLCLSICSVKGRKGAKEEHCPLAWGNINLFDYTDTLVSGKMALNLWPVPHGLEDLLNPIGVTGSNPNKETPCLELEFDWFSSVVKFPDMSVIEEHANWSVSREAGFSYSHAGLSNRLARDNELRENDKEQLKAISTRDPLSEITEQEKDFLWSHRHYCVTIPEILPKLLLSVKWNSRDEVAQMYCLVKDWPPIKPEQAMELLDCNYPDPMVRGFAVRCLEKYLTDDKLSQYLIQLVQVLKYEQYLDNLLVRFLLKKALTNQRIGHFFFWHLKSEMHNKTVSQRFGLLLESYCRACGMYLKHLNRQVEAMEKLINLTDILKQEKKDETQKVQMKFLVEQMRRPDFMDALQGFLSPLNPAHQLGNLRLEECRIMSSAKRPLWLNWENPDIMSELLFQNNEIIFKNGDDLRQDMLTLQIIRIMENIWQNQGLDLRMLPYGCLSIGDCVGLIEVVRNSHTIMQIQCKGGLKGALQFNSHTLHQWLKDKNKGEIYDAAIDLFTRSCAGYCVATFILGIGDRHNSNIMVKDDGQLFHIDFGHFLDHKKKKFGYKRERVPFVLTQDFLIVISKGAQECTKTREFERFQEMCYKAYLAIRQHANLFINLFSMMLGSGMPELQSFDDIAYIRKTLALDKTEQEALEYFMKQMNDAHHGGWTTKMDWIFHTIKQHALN
T4 sequence (P48736 144-1102 limits assumed): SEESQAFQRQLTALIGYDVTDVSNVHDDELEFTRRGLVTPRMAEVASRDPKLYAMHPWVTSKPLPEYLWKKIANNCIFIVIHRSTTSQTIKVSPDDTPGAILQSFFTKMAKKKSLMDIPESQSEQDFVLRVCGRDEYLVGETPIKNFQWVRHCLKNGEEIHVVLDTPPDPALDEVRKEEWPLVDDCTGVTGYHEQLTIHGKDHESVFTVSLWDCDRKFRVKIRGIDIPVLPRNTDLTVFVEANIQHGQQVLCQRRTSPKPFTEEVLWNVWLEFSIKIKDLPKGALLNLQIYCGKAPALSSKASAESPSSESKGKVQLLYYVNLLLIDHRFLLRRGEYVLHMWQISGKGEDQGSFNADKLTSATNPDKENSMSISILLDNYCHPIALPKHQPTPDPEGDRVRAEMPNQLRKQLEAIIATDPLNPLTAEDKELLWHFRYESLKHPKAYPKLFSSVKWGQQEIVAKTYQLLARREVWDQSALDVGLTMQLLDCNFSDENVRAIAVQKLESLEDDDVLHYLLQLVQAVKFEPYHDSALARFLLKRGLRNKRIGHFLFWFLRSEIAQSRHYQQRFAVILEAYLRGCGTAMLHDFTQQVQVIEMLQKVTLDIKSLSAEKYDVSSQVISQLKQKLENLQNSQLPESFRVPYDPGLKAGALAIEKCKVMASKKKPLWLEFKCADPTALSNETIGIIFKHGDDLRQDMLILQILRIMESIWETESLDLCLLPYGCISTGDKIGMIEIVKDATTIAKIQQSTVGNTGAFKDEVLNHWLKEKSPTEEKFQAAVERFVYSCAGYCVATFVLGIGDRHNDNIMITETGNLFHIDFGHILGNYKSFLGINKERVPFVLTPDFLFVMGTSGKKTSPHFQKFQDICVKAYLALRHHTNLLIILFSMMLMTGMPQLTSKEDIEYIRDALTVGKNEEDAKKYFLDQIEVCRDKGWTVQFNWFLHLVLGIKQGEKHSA

| IC50 (PI3K delta) | IC50 (PI3K beta) | IC50 (PI3K alfa) | IC50 (PI3K gamma) | Structure (SMILES) |
| --- | --- | --- | --- | --- |
| 5370 nM | > 9100 nM | 245 nM | 4740 nM | COc1cc(-c2ccc3nc(C)c(-c4cnc(N)c(C(F)(F)F)c4)n3n2)ccc1OCCNC(=O)c1ccc(OC)c(OC)c1OC [Example 95, N-(2-{4-[3-(6-Amino-5-trifluoromethyl-pyridin-3-yl)-2-methyl-imidazo[1,2-b]pyridazin-6-yl]-2-methoxy-phenoxy}-ethyl)-2,3,4-trimethoxy-benzamide] |
| 1820 nM | > 9100 nM | 821 nM | > 9100 nM | Cc1nc2ccc(-c3ccc(OCC4(NC(=O)OCc5ccccc5)COC4)cc3)nn2c1-c1cnc(N)c(C(F)(F)F)c1 [Example 112, (3-{4-[3-(6-Amino-5-trifluoromethyl-pyridin-3-yl)-2-methyl-imidazo[1,2-b]pyridazin-6-yl]-phenoxymethyl}-oxetan-3-yl)-carbamic acid benzyl ester] |
| 372 nM | > 9100 nM | 30 nM | 503 nM | COc1cc(-c2ccc3nc(C)c(-c4cnc(N)c(C(F)(F)F)c4)n3n2)ccc1OCCNC(=O)C(C)C [Example 81] |
| 2990 nM | > 9100 nM | 4690 nM | > 9100 nM | CCS(=O)(=O)c1ccc(-c2c(C)nc3ccc(-c4ccc(OCCCN5CCCC5=O)cc4)nn23)cc1 [Example 107, 1-(3-{4-[3-(4-Ethanesulfonyl-phenyl)-2-methyl-imidazo[1,2-b]pyridazin-6-yl]-phenoxy}-propyl)-pyrrolidin-2-one] |
| 4130 nM | > 9100 nM | 2320 nM | 3310 nM | COc1cc(-c2ccc3nc(C)c(-c4cnc(N)c(C(F)(F)F)c4)n3n2)ccc1OCCNC(=O)Nc1cccc(C(F)(F)F)c1 [Example 93, 1-(2-{4-[3-(6-Amino-5-trifluoromethyl-pyridin-3-yl)-2-methyl-imidazo[1,2-b]pyridazin-6-yl]-2-methoxy-phenoxy}-ethyl)-3-(3-trifluoromethyl-phenyl)-urea] |
| 273 nM | 6260 nM | 83 nM | 518 nM | Cc1nc2ccc(-c3ccc(OCCCN4CCCC4=O)cc3)nn2c1-c1cnc(N)c(C(F)(F)F)c1 [Example 105, 1-(3-{4-[3-(6-Amino-5-trifluoromethyl-pyridin-3-yl)-2-methyl-imidazo[1,2-b]pyridazin-6-yl]-phenoxy}-propyl)-pyrrolidin-2-one] |
| 362 nM | 1830 nM | 15 nM | 662 nM | COc1cc(-c2ccc3nc(C)c(-c4cnc(N)c(C(F)(F)F)c4)n3n2)ccc1OCCN(CC(=O)N(C)C)CC(=O)N(C)C [Example 103, 2-[(2-{4-[3-(6-Amino-5-trifluoromethyl-pyridin-3-yl)-2-methyl-imidazol[1,2-b]pyridazin-6-yl]-2-methoxy-phenoxy}-ethyl)-dimethylcarbamoylmethyl-amino]-N,N-dimethyl-acetamide] |
| 3400 nM | > 9100 nM | 4100 nM | > 9100 nM | CCS(=O)(=O)c1ccc(-c2c(C)nc3ccc(-c4ccc(OCCOCCOCCOC)c(OC)c4)nn23)cc1 [Example 91, 3-(4-Ethanesulfonyl-phenyl)-6-(3-methoxy-4-{2-[2-(2-methoxy-ethoxy)-ethoxy]-ethoxy}-phenyl)-2-methyl-imidazo[1,2-b]pyridazine] |

The remaining lines, values behind:

| Structure (SMILES) | IC50 (PI3K delta) | IC50 (PI3K beta) | IC50 (PI3K alfa) | IC50 (PI3K gamma) |
| --- | --- | --- | --- | --- |
| COc1ccc(-c2ccc3nc(C)c(-c4ccc(N)nc4)n3n2)cc1OC [Example 7] | 694 nM | 976 nM | 96 nM | 419 nM |
| COc1ccc(-c2ccc3nc(C)c(-c4ccc(C#N)nc4)n3n2)cc1OC [Example 4] | 152 nM | 1210 nM | 44 nM | 345 nM |
| COc1cc(-c2ccc3nc(C)c(-c4cnc(N)c(C(F)(F)F)c4)n3n2)ccc1OCCNC(=O)Nc1cc(OC)c(OC)c(OC)c1 [Example 61] | 2710 nM | > 9100 nM | 242 nM | 194 nM |
| COc1ccc(-c2ccc(-c3ccc4nc(C)c(-c5ccc(N6CCOCC6)nc5)n4n3)cc2)cc1 [Example 18, 6-(4′-Methoxy-biphenyl-4-yl)-2-methyl-3-(6-morpholin-4-yl-pyridin-3-yl)-imidazo[1,2-b]pyridazine] | > 25000 nM | 5160 nM | > 25000 nM | > 25000 nM |
| COc1ccc(-c2ccc3nc(C)c(-c4cncc(C#N)c4)n3n2)cc1OC [Example 6] | 2710 nM | 4190 nM | 455 nM | 1850 nM |
| COc1cc(-c2ccc3nc(C)c(-c4cnc(N)c(C(F)(F)F)c4)n3n2)ccc1OCCNC(=O)c1cccc(C#N)c1 [Example 27] | > 9100 nM | > 9100 nM | 456 nM | 2280 nM |
| COc1cc(-c2ccc3nc(C)c(-c4cnc(N)c(C(F)(F)F)c4)n3n2)ccc1OCCN [Example 24, 5-{6-[4-(2-Amino-ethoxy)-3-methoxy-phenyl]-2-methyl-imidazo[1,2-b]pyridazin-3-yl}-3-trifluoromethyl-pyridin-2-ylamine] | 52 nM | 51 nM | 39 nM | 211 nM |
| COc1ccc(-c2ccc3nc(C)c(-c4ccc(F)nc4)n3n2)cc1OC [Example 1, 6-(3,4-Dimethoxy-phenyl)-3-(6-fluoro-pyridin-3-yl)-2-methyl-imidazo[1,2-b]pyridazine] | 1350 nM | 1680 nM | 206 nM | 241 nM |
| COc1ccc(-c2ccc3nc(C)c(-c4ccc(O)nc4)n3n2)cc1OC [Example 8, 5-[6-(3,4-dimethoxy-phenyl)-2-methyl-imidazo[1,2-b]pyridazin-3-yl]-pyridin-2-ol] | 456 nM | 1170 nM | 42 nM | 303 nM |
| COc1ccc(S(=O)(=O)n2ccc(-c3c(C)nc4ccc(-c5ccc(OC)c(OC)c5)nn34)n2)cc1 [Example 22, 6-(3,4-Dimethoxy-phenyl)-3-[1-(4-methoxy-benzenesulfonyl)-1H-pyrazol-3-yl]-2-methyl-imidazo[1,2-b]pyridazine] | 889 nM | > 9100 nM | 781 nM | 1500 nM |
| COc1ccc(-c2ccc3nc(C)c(-c4ccn(S(=O)(=O)c5ccc(C#N)cc5)n4)n3n2)cc1OC [Example 21, 4-{3-[6-(3,4-Dimethoxy-phenyl)-2-methyl-imidazo[1,2-b]pyridazin-3-yl]-pyrazole-1-sulfonyl}-benzonitrile] | 406 nM | > 9100 nM | 408 nM | 655 nM |
| CCOc1ccc(-c2ccc3nc(C)c(-c4ccc(N5CCOCC5)nc4)n3n2)cc1OC [Example 14, 6-(4-Ethoxy-3-methoxy-phenyl)-2-methyl-3-(6-morpholin-4-yl-pyridin-3-yl)-imidazo[1,2-b]pyridazine] | 2050 nM | 5150 nM | 138 nM | 688 nM |

Reference: patent US20100305113A1, “Substituted Imidazopyridazines as Lipid Kinase Inhibitors” (priority 2007, published 2010)
